Consider 34 compounds from patent US10562869B2, “Oxadiazole compounds” (REMYND NV, priority 2014, dated 2020).

Usually EC50 stands for the concentration that produces a half-maximal response. A low value points to higher potency in that assay.

Structures are written as SMILES.

The test system of this experiment is M17_3TAU(P301L) cells. Description: Retinoic acid-induced cytotoxicity (LDH) in TAU-P301L expressing M17_3TAU(P301L) neuroblastoma cells. The settings on record: Homo sapiens, Neuroblastoma cell, 168 h; toxicity inhibition (LDH) in M17_3TAU(P301L) cells challenged with retinoic acid, 7 days. Format: cell-based. An excerpt: A TAU expression plasmid was constructed by sub-cloning the cDNA encoding for human TAU-P301L protein, wherein proline at position 301 was substituted by a leucine residue, into mammalian expression vector pcDNA3.1 resulting in the plasmid pcDNA3.1-TAUP301L. Plasmid pcDNA3.1-TAU P301L was transfected into human neuroblastoma cells (BE-M17; ATCC No. CRL-2267™) using lipofectamine reagent and subsequently, independent clonal cell lines with the plasmids stably integrated into the genome were selected by antibiotic resistance selection (Geneticin (G418)), resulting in cell line M17_3TAUP301L. Expression of the TAUP301L gene in the M17_3TAUP301L cells was confirmed by Western blot analysis.
M17_3TAU(P301L) cells were treated chronically with retinoic acid (RA) in low serum conditions to induce Alzheimer's disease-like intracellular signaling deregulation leading to increased TAU levels and subsequent cell death. Cytotoxicity of cells was measured by quantification of lactate dehydrogenase (LDH) levels. In dead cells LDH leaked out of the cells into the medium due to a loss of plasma-membrane integrity.
3 days preceding the experiment, a pre-culture of M17_3TAU(P301L) cells was prepared, starting from a stock culture, at a density of 50.000-100.000 cells/cm^2 in culture medium (Optimem Reduced Serum with phenol red (Invitrogen, Cat. 31985-047)) supplemented with 10% fetal calf serum (FCS), 1 mM sodium pyruvate, 1×non-essential amino acids (NEAA), 500 μg/ml G418 and 0.5×(ABAM). At the day of the experiment these precultures were diluted to ˜0.1·10^6 cells/ml in detection medium (Optimem Reduced Serum without phenol red (Gibco, Cat.11058-021) supplemented with 1% fetal calf serum (FCS), 1 mM sodium pyruvate, 1×non-essential amino acids (NEAA), 500 μg/ml G418 and 0.5×ABAM) and 60 μL of this suspension was dispensed per well into a 96-well microtiter plate. After 3 hours of incubation at 37° C./5% CO2 an equal volume of detection medium (without FCS) containing 3.75 μM RA was added and subsequently incubated for 7 days at 37° C./5% CO2. Then LDH activity was determined using the Promega Cytotox 96 Non-Radioactive cytotoxicity assay (Cat. G1780), according to the manufacturer's instructions. Cytotoxicity was defined as the ratio of LDH relative the total LDH in the cells and supernatant.
The assay described above using the M17_3TAU(P301L) cell line allowed to screen compounds for their ability to decrease cytotoxicity in RA-challenged cells. Compounds of the invention were tested for their ability to decrease toxicity at different concentrations, ranging from low non-effective concentrations to high potent concentrations. Afterwards, the dose-dependent inhibition curve was used to calculate their EC50. A compound was considered to be active in this test when it inhibited toxicity by more than 20% relative to untreated M17_3TAU(P301L) cells at a concentration of 10 μM or lower.
Turning to `CCOCCN1CCN(c2nc(Cc3ccc(Cl)cc3)no2)CC1` [Cmpd065, 1-[3-(4-Chloro-benzyl)-[1,2,4]oxadiazol-5-yl]-4-(2-ethoxy-ethyl)-piperazine], the EC50 was determined as 763 nM.
`Clc1ccc(Cc2noc(N3CCN(Cc4ccc5c(c4)OCO5)CC3)n2)cc1` [Cmpd055, 1-Benzo[1,3]dioxol-5-ylmethyl-4-[3-(4-chloro-benzyl)-[1,2,4]oxadiazol-5-yl]-piperazine] gave an EC50 of 452 nM.
In turn, `CC(C)CCN1CCN(c2nc(CCC(F)(F)F)no2)CC1` [Cmpd179, 5-(4-Isopentylpiperazin-1-yl)-3-(3,3,3-trifluoropropyl)-1,2,4-oxadiazole] came in with a 50% effective concentration (EC50) of 46 nM.
In turn, `Clc1ccc(CCN2CCN(c3nc(Cc4ccc(Cl)cc4)no3)CC2)cc1` [Cmpd059, 1-[3-(4-Chloro-benzyl)-[1,2,4]oxadiazol-5-yl]-4-[2-(4-chloro-phenyl)-ethyl]-piperazine] returned an EC50 of 220 nM.
The compound `C1CN(CCN2CCN(c3nc(C4C[C@@H]5CC[C@H]4C5)no3)CC2)CCO1` (stereo partly drawn) [Cmpd188, 4-(2-(4-(3-((1S,4R)-bicyclo[2.2.1]heptan-2-yl)-1,2,4-oxadiazol-5-yl)piperazin-1-yl)ethyl)morpholine] displayed an EC50 of 4 nM.
The figure for `Cc1ccccc1CN1CCN(c2nc(-c3cccc(Cl)c3)no2)CC1` [Cmpd026, 3-(3-Chlorophenyl)-5-(4-(2-methylbenzyl)piperazin-1-yl)-1,2,4-oxadiazole] is 88 nM; for `FC(F)(F)CCCN1CCN(c2nc(Cc3ccc(Cl)cc3)no2)CC1` [Cmpd068, 1-[3-(4-Chloro-benzyl)-[1,2,4]oxadiazol-5-yl]-4-(4,4,4-trifluoro-butyl)-piperazine] it is 151 nM; for `Fc1ccc(Cc2noc(N3CCN(CCc4ccc(Cl)cc4)CC3)n2)cc1F` [Cmpd102, 1-[2-(4-Chloro-phenyl)-ethyl]-4-[3-(3,4-difluoro-benzyl)-[1,2,4]oxadiazol-5-yl]-piperazine] it is 17 nM.
Regarding `COc1cccc(CCN2CCN(c3nc(Cc4cccc(Cl)c4)no3)CC2)c1` [Cmpd076, 1-[3-(3-Chloro-benzyl)-[1,2,4]oxadiazol-5-yl]-4-[2-(3-methoxy-phenyl)-ethyl]-piperazine], a half-maximal response (EC50) required 6 nM.
As for `Clc1ccc(Cc2noc(N3CCN(CC4CCOCC4)CC3)n2)cc1` [Cmpd069, 3-(4-Chlorobenzyl)-5-(4-((tetrahydro-2H-pyran-4-yl)methyl)piperazin-1-yl)-1,2,4-oxadiazole], the half-maximal effective concentration (EC50) was 161 nM.
The compound `Cc1ccccc1CN1CCN(c2nc(Cc3ccccc3)no2)CC1` [Cmpd041, 1-(3-Benzyl-[1,2,4]oxadiazol-5-yl)-4-(2-methylbenzyl)-piperazine] yielded an EC50 of 55 nM.
The compound `Clc1ccc(Cc2noc(N3CCN(Cc4ccccc4Cl)CC3)n2)cc1` [Cmpd062, 1-(2-Chloro-benzyl)-4-[3-(4-chloro-benzyl)-[1,2,4]oxadiazol-5-yl]-piperazine] registered an EC50 of 2 nM.
In the case of `Cc1ccccc1CN1CCN(c2nc(Cc3ccc(Cl)cc3)no2)CC1` [Cmpd058, 1-[3-(4-Chloro-benzyl)-[1,2,4]oxadiazol-5-yl]-4-(2-methyl-benzyl)-piperazine], the EC50 came to 177 nM.
Take `Clc1cccc(-c2noc(N3CCN(Cc4ccccc4Cl)CC3)n2)c1` [Cmpd027, 5-(4-(2-Chlorobenzyl)piperazin-1-yl)-3-(3-chlorophenyl)-1,2,4-oxadiazole]: the EC50 was 74 nM.
As to `Fc1cccc(-c2noc(N3CCN(Cc4ccccc4Cl)CC3)n2)c1` [Cmpd029, 5-(4-(2-Chlorobenzyl)piperazin-1-yl)-3-(3-fluorophenyl)-1,2,4-oxadiazole], the EC50 was found to be 97 nM.
Compound `Clc1ccc(CCN2CCN(c3nc(C4(c5ccccc5)CC4)no3)CC2)cc1` [Cmpd127, 5-(4-(4-Chlorophenethyl)piperazin-1-yl)-3-(1-phenylcyclopropyl)-1,2,4-oxadiazole] returned an EC50 of 59 nM.
`Clc1ccc(-c2noc(N3CCN(CCc4ccccc4)CC3)n2)cc1` [Cmpd020, 3-(4-Chlorophenyl)-5-(4-phenethylpiperazin-1-yl)-1,2,4-oxadiazole] came in with an EC50 of 10 nM.
For the compound `CC(C)N1CCN(c2nc(Cc3ccc(Cl)cc3)no2)CC1` [Cmpd071, 3-(4-Chlorobenzyl)-5-(4-isopropylpiperazin-1-yl)-1,2,4-oxadiazole], the EC50 stood at 133 nM.
Turning to `Clc1ccccc1CN1CCN(c2nc(-c3ccccc3)no2)CC1` [Cmpd001, 5-(4-(2-Chlorobenzyl)piperazin-1-yl)-3-phenyl-1,2,4-oxadiazole], the EC50 came to 27 nM.
Take `Clc1ccc(CCN2CCN(c3nc(-c4ccc(Cl)cc4)no3)CC2)cc1` [Cmpd019, 5-(4-(4-Chlorophenethyl)piperazin-1-yl)-3-(4-chlorophenyl)-1,2,4-oxadiazole]: it took 112 nM to reach a half-maximal effect (EC50).
For `Clc1ccc(CCN2CCN(c3nc(-c4cccc(Cl)c4)no3)CC2)cc1` [Cmpd024, 5-(4-(4-Chlorophenethyl)piperazin-1-yl)-3-(3-chlorophenyl)-1,2,4-oxadiazole], it took 119 nM to reach a half-maximal effect (EC50).
On to `Cc1ccc(CN2CCN(c3nc(C4(c5ccccc5)CC4)no3)CC2)cc1` [Cmpd130, 5-(4-(4-Methylbenzyl)piperazin-1-yl)-3-(1-phenylcyclopropyl)-1,2,4-oxadiazole], for which the response was half-maximal at 185 nM (EC50).
On to `Cc1ccc(CN2CCN(c3nc(-c4ccccc4)no3)CC2)cc1` [Cmpd002, 5-(4-(4-Methylbenzyl)piperazin-1-yl)-3-phenyl-1,2,4-oxadiazole], for which it took 8 nM to reach a half-maximal effect (EC50).
`COc1cccc(CCN2CCN(c3nc(Cc4ccc(Cl)cc4)no3)CC2)c1` [Cmpd056, 1-[3-(4-Chloro-benzyl)-[1,2,4]oxadiazol-5-yl]-4-[2-(3-methoxy-phenyl)-ethyl]-piperazine] showed an EC50 of 75 nM.
Consider `COc1cc(CCN2CCN(c3nc(C4C[C@@H]5CC[C@H]4C5)no3)CC2)ccn1` (stereo partly drawn) [Cmpd187, 3-((1S,4R)-bicyclo[2.2.1]heptan-2-yl)-5-(4-(2-(2-methoxypyridin-4-yl)ethyl)piperazin-1-yl)-1,2,4-oxadiazole], for which the concentration for a half-maximal effect (EC50) is 47 nM.
As for `COc1cccc(CCN2CCN(c3nc(C(C)(C)c4ccc(F)cc4)no3)CC2)c1` [Cmpd118, 3-(2-(4-Fluorophenyl)propan-2-yl)-5-(4-(3-methoxyphenethyl)piperazin-1-yl)-1,2,4-oxadiazole], the EC50 stood at 105 nM.
For the compound `COc1cccc(CCN2CCN(c3nc(Cc4ccc(F)c(F)c4)no3)CC2)c1` [Cmpd098, 1-[3-(3,4-Difluoro-benzyl)-[1,2,4]oxadiazol-5-yl]-4-[2-(3-methoxy-phenyl)-ethyl]-piperazine], the response was half-maximal at 3 nM (EC50).
Compound `COc1ccc(CCN2CCN(c3nc(Cc4ccc(Cl)cc4)no3)CC2)cn1` [Cmpd060, 1-[3-(4-Chloro-benzyl)-[1,2,4]oxadiazol-5-yl]-4-[2-(6-methoxy-pyridin-3-yl)-ethyl]-piperazine] returned an EC50 of 74 nM.
As for `Cc1ccc(-c2noc(N3CCN(Cc4ccc5c(c4)OCO5)CC3)n2)cc1` [Cmpd007, 5-(4-(Benzo[d][1,3]dioxol-5-ylmethyl)piperazin-1-yl)-3-(p-tolyl)-1,2,4-oxadiazole], the response was half-maximal at 352 nM (EC50).
Next, `Fc1ccc(C(F)(F)c2noc(N3CCN(Cc4ccc5c(c4)OCO5)CC3)n2)cc1` [Cmpd149, 5-(4-(Benzo[d][1,3]dioxol-5-ylmethyl)piperazin-1-yl)-3-(difluoro(4-fluorophenyl)methyl)-1,2,4-oxadiazole]: 849 nM.
`Cc1ccccc1CN1CCN(c2nc(-c3ccc(Cl)cc3)no2)CC1` [Cmpd022, 3-(4-Chlorophenyl)-5-(4-(2-methylbenzyl)piperazin-1-yl)-1,2,4-oxadiazole]: it took 35 nM to reach a half-maximal effect (EC50).
Compound `CCC(c1ccccc1)c1noc(N2CCN(Cc3ccc4c(c3)OCO4)CC2)n1` (stereo not shown) [Cmpd047, 5-(4-(Benzo[d][1,3]dioxol-5-ylmethyl)piperazin-1-yl)-3-(1-phenylpropyl)-1,2,4-oxadiazole] returned a half-maximal effective concentration (EC50) of 63 nM.
For `Cc1ccc(-c2noc(N3CCN(Cc4ccc(Cl)cc4)CC3)n2)cc1` [Cmpd008, 5-(4-(4-Chlorobenzyl)piperazin-1-yl)-3-(p-tolyl)-1,2,4-oxadiazole], the EC50 amounted to 182 nM.
As for `N#CCCCN1CCN(c2nc(CCC(F)(F)F)no2)CC1` [Cmpd181, 4-(4-(3-(3,3,3-Trifluoropropyl)-1,2,4-oxadiazol-5-yl)piperazin-1-yl)butanenitrile], the concentration for a half-maximal effect (EC50) came to 584 nM.
